Assay results reported in ChEMBL document CHEMBL5385856, “Novel 1,4,5,6-tetrahydrocyclopenta[d]imidazole-5-carboxamide-based JNK3 inhibitors: Design, synthesis, molecular docking, and therapeutic potential in neurodegenerative diseases” (Eur J Med Chem, 2023).

Tested on: Cortical neurone
Test: Neuroprotective activity against Abeta42-induced neuronal apoptosis in Sprague-Dawley rat primary cortical neuron cells assessed as cell viability at 20 uM preincubated for 90 mins followed by Abeta42 addition for 24 hrs and measured on day 5 by MTT assay (reference value: 52%)
Assay type: functional
Conditions: 120 h, time 5 day, read-out: Activity

`Oc1ccc(/C=C/c2cc(O)cc(O)c2)cc1` [RESVERATROL] gave a viability at 20 µM of 84.2%.
